Results: patent US4120947A, “Xanthine compounds and method of treating bronchospastic and allergic diseases” (priority 1976, dated 1978)
“Also recorded” adds a separate entry of the source. Like-named read-outs stand apart in the source and are kept apart here.

Legend:
[1] = system: guinea pig tracheal chain preparation; test: SP: spasmolytic activity in vitro, guinea pig tracheal chain preparation; settings: Cavia porcellus, read-out: SP in vitro C, molar concentration required to produce maximum relaxation
Excerpt: SP Spasmolytic activity evaluated in vitro using guinea pig tracheal chain preparation, and expressed as the molar (M) concentration required to produce maximum relaxation. The method used in that of Castillo and de Beer, J. Pharmac. Expt. Therap. 90, 104, 1947.

[2] = system: histamine-induced bronchoconstriction in the guinea pig; test: BD: bronchodilator activity against histamine-induced bronchoconstriction in the guinea pig; settings: for inhibition in vivo at 10 mg/kg / inhibition in vivo at 20 mg/kg: Cavia porcellus, po, read-out: BD (guinea pig), % protection
Excerpt: BD Bronchodilator activity evaluated against histamine-induced bronchoconstriction in the guinea pig, and expressed as % protection at the stated time interval (in minutes and hours) post-drug against histamine agonist. Doses are expressed in milligrams per kilogram of body weight (mpk) per os (po) or intraperitoneally (ip).
A modification of the method of Siegmund. O.H., et al., J. Pharmacol. and Exp. Therap. 90:254-9, 1947, is used. Healthy guinea pigs weighing from 250 to 300 grams are placed four at a time and separated by wiring screening in an 11 liter plastic chamber, at the time of peak activity following drug administration. The challenge consists of histamine diphosphate (1% solution) aerosolized in a de Vilbiss -40 nebulizer at 200 mm Hg. Times for prostration are recorded.
Per cent protection is calculated as follows: [formula] wherein the times are measured in seconds.
In interpreting the BD data it should be noted that a dose giving less than 40-50% protection is not considered useful. Differences in percent protection of less than 10% are probably not significant.

[3] = in vivo
Experimental: (§1) The LD50 was determined in three species, the mouse (male, 18-25 g), the albino rat (female, 150-200 g) and the albino guinea pig (male 180-280 g) by oral administration and in the albino rat by intraperitoneal administration. The animals are fasted overnight prior to testing. Six groups of ten animals are used; five groups are dosed with the test substance, the sixth group serves as a control and receives the drug vehicle at the highest test concentration. The compounds were administered in a 0.5% gum tragacanth solution in distilled water using a constant logarithmic increment in dose. Dose volume ranged from […].
(§2) The animals were housed five per cage (rat and guinea pig) or ten per cage (mouse) with free access to food and water. The number of dead animals was recorded daily for five consecutive days. The total mortality per group of ten for each dose level was recorded and LD50 with Confidence Limits calculated according to the method described by Weil, C.

[4] = system: histamine-induced bronchoconstriction in the dog; test: CP: cardiopulmonary activity against histamine-induced bronchoconstriction in the dog; assay type: in vivo; settings: histamine challenge
Excerpt: Pretreatment with bronchodilator drugs aims to block the bronchospastic response to histamine. Each dog serves as its own control.

[5] = system: passive cutaneous anaphylaxis in the rat; test: PCA: passive cutaneous anaphylaxis in the rat; assay type: in vivo; settings: for antiallergy activity, in words: rat passive cutaneous anaphylaxis
Experimental: PCA Antianaphylactic activity against passive cutaneous anaphylaxis in the rat, expressed as % protection against antigen-induced wheal formation.
The method used is that of Ogilvie, B. M., Immunology 12, 113-131 (1967). Reaginic […] antibodies develope in the rat following subcutaneous injection of Nippostrongylus brasiliensis larvae. Antisera, collected 28 days later are injected subcutaneously into new rats.

[6] = system: antigen-induced bronchconstriction in rats sensitized with N. brasliensis; test: AA: antiallergy (anti-anaphylactic) activity against antigen-induced bronchoconstriction in sensitized rats
Excerpt: The animals are subdivided into control and test groups. Test animals receive a drug either orally, intraperitoneally or intravenously and are challenged with intravenous antigen at fixed time intervals after dosing. Antigen-induced increases in tracheal pressure are monitored and reflect the extent of bronchoconstriction.

[7] = LD50 mouse; assay type: in vivo; settings: in vivo, po
Experimental: as §1, §2

[8] = system: albino rat; test: in vivo
Experimental: as §1, §2

[9] = system: mouse; test: LD50 mouse; assay type: in vivo
Experimental: as §1, §2

[10] = guinea pig, comparison with corresponding compound
[11] = Rattus norvegicus, ip, 1 h, read-out: AA (rat), % protection
[12] = Rattus norvegicus, po, 1 h, read-out: AA (rat), % protection

| SMILES | EC (maximum relaxation) [1] | inhibition in vivo at 10 mg/kg ([2]; 0.5 h) | inhibition in vivo at 10 mg/kg ([2]; 1 h) | inhibition in vivo at 10 mg/kg ([2]; 6 h) | inhibition in vivo at 10 mg/kg ([2]; 10 h) | onset and duration of action, in words [2, 10] | LD50 ([3]; guinea pig, po) | LD50 ([3]; in vivo, rat, ip) | LD50 ([3]; in vivo, rat, po) | cardiopulmonary / bronchodilator activity in the dog, in words [4] | Wheal Diameter, % Δ ([5]; 20 mg/kg po) | Wheal Diameter, Response (Mean ± S.E.M.) ([5]; 20 mg/kg po) | Wheal Intensity, % Δ ([5]; 20 mg/kg po) | Wheal Intensity, Response (Mean ± S.E.M.) ([5]; 20 mg/kg po) | antiallergy activity, in words [5] | inhibition in vivo at 2.5 mg/kg [6, 12] | LD50 [7] | also measured |
| --- | --- | --- | --- | --- | --- | --- | --- | --- | --- | --- | --- | --- | --- | --- | --- | --- | --- | --- |
| COC(=O)n1c(C)nc2c1c(=O)n(C)c(=O)n2CC(C)C [Compound 4390, 1,8-dimethyl-3-isobutylxanthine-7-carboxylic acid, methyl ester] | 1000 µM | 49% | 86% | 79% | 48% | effective at lower doses and for longer duration | 25.2 mg/kg | 9.1 mg/kg | 33.5 mg/kg | significantly reduce the decrease in pulmonary compliance and increase in pulmonary resistance due to histamine administration | 60% | 0.74 ± 0.21 cm | 53% | 1.10 ± 0.23 | effective antiallergy agents | 77% | 27.6 mg/kg | lethal ([2]; guinea pig, 20 mpK po): 1/2; inhibition in vivo at 2 mg/kg [6, 11]: 60%; inhibition in vivo at 4 mg/kg [6, 11]: 52% |
| CCC(C)Cn1c(=O)n(C)c(=O)c2c1nc(C)n2C(=O)OC (stereo not drawn) [Compound 4387, 1,8-dimethyl-3-(2-methyl-1-butyl)-7-carbomethoxyxanthine] | 1000 µM | 44% | 87% | 59% | 37% | effective at lower doses and for longer duration | 27.4 mg/kg | 18.3 mg/kg | 60 mg/kg | significantly reduce the decrease in pulmonary compliance and increase in pulmonary resistance due to histamine administration; also recorded: about as effective as the corresponding 3-isobutyl compound (4390) | 57% | 0.81 ± 0.13 cm | 38% | 1.18 ± 0.21 | effective antiallergy agents | 72% | 54.9 mg/kg | inhibition in vivo at 20 mg/kg ([2]; 1 h): 94%; inhibition in vivo at 20 mg/kg ([2]; 6 h): 92%; bronchodilator effectiveness, in words [2, 10]: shows greater activity; also recorded: about as effective as the corresponding 3-isobutyl compound (4390); lethality relative to 4390 [8]: about one-half; Wheal Diameter, % Δ ([5]; 10 mg/kg po): 41%; Wheal Diameter, Response (Mean ± S.E.M.) ([5]; 10 mg/kg po): 1.41 ± 0.17 cm; Wheal Intensity, % Δ ([5]; 10 mg/kg po): 33%; Wheal Intensity, Response (Mean ± S.E.M.) ([5]; 10 mg/kg po): 1.65 ± 0.20; inhibition in vivo at 5 mg/kg [6, 11]: 55%; inhibition in vivo at 75 mg/kg [6, 11]: 70%; inhibition in vivo at 5 mg/kg [6, 12]: 68%; inhibition in vivo at 10 mg/kg [6, 12]: 57%; antiallergy effectiveness, in words ([6]; rat, comparison with 4390): about as effective as the corresponding 3-isobutyl compound (4390); lethality relative to 4390 [9]: about one-half |
